In assay [1] the test system is Candida albicans. Put plainly: Millimolar concentration of the lowest concentration that clearly inhibited the cell growth of Candida albicans was determined. Format: functional.
The target in assay [2] is Chitin synthase 1 (Candida albicans) (UniProt P23316). The assay is described as follows: Compound was tested for the inhibitory activity against chitin synthetase in the permeabilised cell assay.
Assay [3] relates to Candida albicans. Put plainly: Compound was tested for the inhibitory activity against Candida albicans cell growth. Format: functional.
For assay [4], the target named is T1, Chitin synthase 1 (Candida albicans, UniProt P23316). The assay is described as follows: Compound was tested for the inhibitory activity against chitin synthetase.
T1 sequence (P23316 whole entry): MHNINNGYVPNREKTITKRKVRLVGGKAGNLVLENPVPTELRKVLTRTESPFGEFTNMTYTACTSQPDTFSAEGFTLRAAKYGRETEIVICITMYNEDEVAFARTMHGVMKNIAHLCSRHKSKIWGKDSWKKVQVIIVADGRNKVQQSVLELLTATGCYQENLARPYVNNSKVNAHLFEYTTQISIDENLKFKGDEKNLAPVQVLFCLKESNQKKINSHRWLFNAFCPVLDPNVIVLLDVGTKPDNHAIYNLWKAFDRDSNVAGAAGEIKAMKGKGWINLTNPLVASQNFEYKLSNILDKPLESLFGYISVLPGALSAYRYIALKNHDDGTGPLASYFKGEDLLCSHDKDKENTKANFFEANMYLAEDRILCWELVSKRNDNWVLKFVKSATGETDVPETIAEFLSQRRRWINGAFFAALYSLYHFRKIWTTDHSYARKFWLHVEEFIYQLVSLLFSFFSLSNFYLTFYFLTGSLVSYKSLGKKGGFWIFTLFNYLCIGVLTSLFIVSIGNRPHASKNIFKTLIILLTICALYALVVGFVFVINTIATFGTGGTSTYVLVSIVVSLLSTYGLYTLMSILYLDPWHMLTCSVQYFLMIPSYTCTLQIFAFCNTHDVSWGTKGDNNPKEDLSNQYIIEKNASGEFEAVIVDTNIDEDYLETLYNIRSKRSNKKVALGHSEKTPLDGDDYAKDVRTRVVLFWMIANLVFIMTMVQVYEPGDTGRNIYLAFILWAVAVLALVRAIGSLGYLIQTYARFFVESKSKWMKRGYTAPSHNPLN
In assay [5] the test system is Candida albicans. Put plainly: Millimolar concentration at which some morphological effects in Candida albicans cells (about 5% of cells) was determined. Conditions: read-out: MEC. Format: functional.
Assay [6] addresses Chitin synthase 1 (Candida albicans) (UniProt P23316). The assay is described as follows: Compound was tested for the inhibitory activity against chitin synthetase in the mixed membrane preparation from Candida albicans. Format: cell membranes.
In assay [7] the test system is Candida albicans. The assay is described as follows: Concentration at which 50% of the Candida albicans cells were not viable. Format: functional.
For assay [8], the target named is T1, Chitin synthase 1. The assay is described as follows: Inhibition constant (KI) for the mmf chitin synthetase assay performed at constant inhibitor and varying substrate concentrations.

In brackets after ≈: the same amount, converted by molar mass. Bounds are passed on as bounds.

One may read the MIC as the smallest concentration in the dilution series that meets the test's criterion for growth inhibition. High values mean a need for much substance, low ones inhibition by little substance. As usually defined, the Ki is the equilibrium dissociation constant of an inhibitor or competing ligand from its target. Lower therefore signals a stronger hold on the target.

Chitin synthase 1 (Candida albicans), sequence (P23316 whole entry, looked up): as the sequence (P23316 whole entry) above

`CCCNC(CC(C)C)C(=O)NC(C(=O)O)[C@H]1O[C@@H](n2ccc(=O)[nH]c2=O)[C@H](O)[C@@H]1O` (some centres not stated) registered an MIC with Candida albicans [1] of 2500 µM (≈ 1110 µg/mL). Also, the ID50 in assay [2] and in assay [6] was > 100 µM in each case. Further, the Viability in the assay with Candida albicans [3] is recorded as >1 mM. Moreover, at Chitin synthase 1 [4], the inhibition constant Ki amounted to 145 µM. Besides, the minimal effective concentration with Candida albicans [5] is > 2500 µM.
As to `CCCCC(NC)C(=O)NC(C(=O)O)[C@H]1O[C@@H](n2ccc(=O)[nH]c2=O)[C@H](O)[C@@H]1O` (some centres not stated), the minimal inhibitory concentration (MIC) against Candida albicans [1] is > 1000 µM. In the assay on Candida albicans [7], the “concentration killing 50% of cells” value is >4 mM. In addition, the ID50 stood at 97.5 µM in assay [2] and 120 µM in assay [6]. For the same compound, the Ki on Chitin synthase 1 [8] came out at 218 µM. Moreover, the minimal effective concentration in the assay with Candida albicans [5] was 20 µM.
For `NC(Cc1ccccc1)C(=O)N/C(=C/c1ccccc1)C(=O)NC(C(=O)O)[C@H]1O[C@@H](n2ccc(=O)[nH]c2=O)[C@H](O)[C@@H]1O` (some centres not stated), the MIC against Candida albicans [1] was > 2000 µM. Besides, the ID50 in assay [2] turned out to be 80 µM; in assay [6], 40 µM. Further, the Viability in the assay with Candida albicans [3] is on record as >2 mM. The same compound displayed a Ki on Chitin synthase 1 [4] of 11.3 µM. The minimal effective concentration with Candida albicans [5] was > 2000 µM.
In the assay with Candida albicans [1], `CCCCCCCC(=O)NC(Cc1ccccc1)C(=O)NC(C(=O)NC(C(=O)O)[C@H]1O[C@@H](n2cc(C(=O)O)c(=O)[nH]c2=O)[C@H](O)[C@@H]1O)C(O)C(O)COC(N)=O` (some centres not stated) had an MIC of 1000 µM (≈ 795 µg/mL). Also, the results for the ID50 in assay [2] and in assay [6] were 50 µM and 47.5 µM, respectively. For the same compound, the Viability in the assay with Candida albicans [3] was >1 mM. Further, the Ki at Chitin synthase 1 [4] stood at 7.15 µM. Moreover, the minimal effective concentration in the assay on Candida albicans [5] amounted to 1000 µM.
As to `CCCCC(N)C(=O)NC(C(N)=O)[C@H]1O[C@@H](n2ccc(=O)[nH]c2=O)[C@H](O)[C@@H]1O` (some centres not stated), the MIC in the assay on Candida albicans [1] is > 1000 µM. In the assay with Candida albicans [7], the “concentration killing 50% of cells” value is >4 mM. Further, the ID50 in assay [2] is > 100 µM; in assay [6], 200 µM. Besides, the affinity at Chitin synthase 1 [8], expressed as Ki, was 246 µM. The minimal effective concentration with Candida albicans [5] is > 4000 µM.
As for `NOC(Cc1ccccc1)C(=O)NC(C(=O)O)[C@H]1O[C@@H](n2ccc(=O)[nH]c2=O)[C@H](O)[C@@H]1O` (some centres not stated), the MIC in the assay on Candida albicans [1] is 3000 µM (≈ 1350 µg/mL). Besides, the “concentration killing 50% of cells” value in the assay with Candida albicans [7] is >3 mM. Also, the figures for the ID50 in assay [2] and in assay [6] were > 100 µM and 100 µM, respectively. This compound also returned a Ki at Chitin synthase 1 [8] of 978 µM. In the assay on Candida albicans [5], the minimal effective concentration is > 3000 µM.
With `NC(=O)OCC(O)C(O)C(N)C(=O)NC(C(=O)O)[C@H]1O[C@@H](n2cc(C(=O)O)c(=O)[nH]c2=O)[C@H](O)[C@@H]1O` (some centres not stated), the MIC against Candida albicans [1] was 60 µM (≈ 31.3 µg/mL). In the assay on Candida albicans [7], the “concentration killing 50% of cells” value was found to be 1 mM. In assay [2], this compound registered an ID50 of 1 µM. Besides, the Ki on Chitin synthase 1 [8] turned out to be 0.59 µM. For the same compound, the minimal effective concentration in the assay with Candida albicans [5] stood at 20 µM.
Regarding `N[C@@H](Cc1c[nH]c2ccccc12)C(=O)NC(C(=O)O)[C@H]1O[C@@H](n2ccc(=O)[nH]c2=O)[C@H](O)[C@@H]1O` (some centres not stated), in the assay with Candida albicans [1], the MIC was > 1000 µM. Besides, the “concentration killing 50% of cells” value with Candida albicans [7] was >4 mM. In addition, the ID50 in assay [2] and in assay [6] was > 100 µM each time. Affinity at Chitin synthase 1 [8] was put at a Ki of 1060 µM. The minimal effective concentration with Candida albicans [5] is 4000 µM.

The values above are taken from ChEMBL document CHEMBL1123182, “Synthesis and biological properties of chitin synthetase inhibitors resistant to cellular peptidases” (J Med Chem, 1986).
